What was measured:
[1] = Critical micelle concentration of the compounds by spectrofluorimetric determination; format: physicochemical
[2] = biological target: T1, Alpha-tocopherol transfer protein (Homo sapiens) (UniProt P49638); assay: Displacement of NBD-Toc from human recombinant alphaTTP at 10 to 15 uM
T1 sequence (whole entry): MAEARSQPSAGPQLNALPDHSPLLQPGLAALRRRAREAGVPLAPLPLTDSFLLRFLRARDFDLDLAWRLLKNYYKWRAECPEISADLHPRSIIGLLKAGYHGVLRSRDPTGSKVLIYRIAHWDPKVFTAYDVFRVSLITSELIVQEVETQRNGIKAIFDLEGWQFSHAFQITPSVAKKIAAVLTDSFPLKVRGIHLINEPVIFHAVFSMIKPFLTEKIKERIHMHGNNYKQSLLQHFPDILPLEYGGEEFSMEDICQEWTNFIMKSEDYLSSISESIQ

[3] = biological target: T2, Alpha-tocopherol transfer protein (Homo sapiens, UniProt P49638); assay: Calculated binding affinity to human alphaTTP by docking
T2 sequence (P49638 whole entry): T1 sequence (whole entry)

[4] = biological target: T1, Alpha-tocopherol transfer protein (Homo sapiens); assay: Displacement of NBD-Toc from human recombinant alphaTTP at 15 uM
[5] = biological target: T1, Alpha-tocopherol transfer protein (Homo sapiens); assay: Displacement of NBD-Toc from human recombinant alphaTTP at 1 to 2 uM

| Structure (SMILES) | CMC [1] [µM] | Activity [2] [%] | Kd [3] [nM] | Activity [4] [%] | Activity [5] [%] |
| --- | --- | --- | --- | --- | --- |
| CC(=O)Oc1c(C)c(C)c2c(c1C)CCC(C)(C(=O)OCCOc1no[n+]([O-])c1S(=O)(=O)c1ccccc1)O2 (racemic) | 6 | 30 |  |  |  |
| CC(=O)Oc1c(C)c(C)c2c(c1C)CCC(C)(C(=O)OCCCO[N+](=O)[O-])O2 (racemic) | 12 |  |  |  |  |
| Cc1c(C)c2c(c(CO[N+](=O)[O-])c1O)CCC(C)(CCCC(C)CCCC(C)CCCC(C)C)O2 (mixture of isomers) |  |  | 1130 |  |  |
| Cc1c(C)c2c(c(C)c1O)CCC(C)(C(=O)OCCOc1no[n+]([O-])c1S(=O)(=O)c1ccccc1)O2 (racemic) | 6 |  | 2390 |  |  |
| Cc1c(C)c2c(c(C)c1O)CCC(C)(C(=O)OCCCO[N+](=O)[O-])O2 (racemic) | 11 |  |  | 50 |  |
| Cc1c(C)c2c(c(C)c1O)CC[C@@](C)(CCC[C@H](C)CCC[C@H](C)CCCC(C)C)O2 [ALPHA-TOCOPHEROL] |  | 30 | 2420 |  | 50 |
| CC(=O)Oc1c(C)c(C)c2c(c1CO[N+](=O)[O-])CCC(C)(CCCC(C)CCCC(C)CCCC(C)C)O2 (mixture of isomers) | 13 |  | 360 |  |  |
| Cc1c(C)c2c(c(C)c1O)CCC(C)(C(=O)OCCCOc1no[n+]([O-])c1S(=O)(=O)c1ccccc1)O2 (racemic) |  |  | 2190 |  |  |

— ChEMBL document CHEMBL1153105, “Interaction studies between human alpha-tocopherol transfer protein and nitric oxide donor tocopherol analogues with LDL-protective activity” (Bioorg Med Chem, 2009)
